In paper PMC7261162 (2020):

Tests used:
[1] = test system: CatG4-ext (DNA, G4) ACATAGCTGACTGGCTTGATTTTGGGTAGGGCGGGTTGGGAAATATCGAATTCTCAGCCTACACTGCAGTACTAGTACATATCA; assay: competition with hemin: StAv gel shift of self-biotinylation; details: 20 mM KCl, 40 mM HEPES pH 8.0, 22°C, 5 uM hemin
[2] = test system: KIT1 (DNA, G4) AGGGAGGGCGCTGGGAGGAGGG; assay: hemin-dependent self-biotinylation, StAv gel shift (indirect); details: 20 mM KCl; 40 mM HEPES pH 8.0, 22°C; 5 uM hemin
[3] = test system: CatG4-ext (DNA, G4) ACATAGCTGACTGGCTTGATTTTGGGTAGGGCGGGTTGGGAAATATCGAATTCTCAGCCTACACTGCAGTACTAGTACATATCA; assay: as above; details: 20 mM KCl, 26 mM MgCl2, 2.5 mM spermidine; QD buffer pH 8.0, 22°C; 10 nM DNA, 5 uM hemin, 100 uM ssDNA or dsDNA competitor
[4] = test system: CatG4-ext2 / Comp-1 / ssDNA / Comp-3 GQ-duplex chimera (DNA, G4) TGGGTAGGGCGGGTTGGGAAATATTTTAGCTCACGAGACGCTCCCATAGTGACCTATAGTGAGTCGTATTAAAGTCCGGAGGACTGTCCTCCGGC/TCACTATGGGAGCGTCTCGTGAGCTAAA/CTTTAATACGACTCACTATAGG/GCCGGAGGACAGTCCTCCGGA; assay: as above; details: 20 mM KCl, 26 mM MgCl2, 2.5 mM spermidine; QD buffer pH 8.0; 1 uM DNA, 5 uM hemin; ssDNA strand not biotinylated
[5] = test system: rNRAS (RNA, G4) AGGGAGGGGCGGGUCUGGG; assay: as above; details: 20 mM KCl; 40 mM HEPES pH 8.0, 22°C; 5 uM hemin
[6] = test system: rBCL2 (RNA, G4) AGGGGGCCGUGGGGUGGGAGCUGGGG; assay: as above; details: 20 mM KCl; 40 mM HEPES pH 8.0, 22°C; 5 uM hemin
[7] = test system: CatG4-T7 / ssDNA duplex-GQ chimera (DNA, G4) TGGGTAGGGCGGGTTGGGAAATATCCTATAGTGAGTCGTATTAAAG/CTTTAATACGACTCACTATAGG; assay: as above; details: 20 mM KCl, 26 mM MgCl2, 2.5 mM spermidine; QD buffer pH 8.0; 1 uM DNA, 5 uM hemin; CatG4-T7 strand 52%, ssDNA strand 3% biotinylated
[8] = test system: KIT2 (DNA, G4) CGGGCGGGCGCGAGGGAGGGG; assay: as above; details: 20 mM KCl; 40 mM HEPES pH 8.0, 22°C; 5 uM hemin
[9] = test system: CatG4 (DNA, G4) TGGGTAGGGCGGGTTGGGAAA; assay: as above; details: 20 mM KCl; 40 mM HEPES pH 8.0, 22°C; 5 uM hemin
[10] = test system: SPB1 (DNA, G4) GGCGAGGAGGGGCGTGGCCGGC; assay: as above; details: 20 mM KCl; 40 mM HEPES pH 8.0, 22°C; 5 uM hemin
[11] = test system: hTELO (DNA, G4) GGTTAGGGTTAGGGTTAGGGTTAGGGTTAG; assay: as above; details: 20 mM KCl; 40 mM HEPES pH 8.0, 22°C; 5 uM hemin
[12] = test system: TBA (DNA, G4) GGTTGGTGTGGTTGG; assay: as above; details: 20 mM KCl; 40 mM HEPES pH 8.0, 22°C; 5 uM hemin
[13] = test system: MYC (DNA, G4) TGAGGGTGGGTAGGGTGGGTAA; assay: as above; details: 20 mM KCl; 40 mM HEPES pH 8.0, 22°C; 5 uM hemin
[14] = 20 uM ligand lowers biotinylation 67% to 22-23%

Measured: binding

CN(C)c1ccc(Nc2c3ccc(NC(=O)CCN4CCCC4)cc3nc3cc(NC(=O)CCN4CCCC4)ccc23)cc1
yes: [1]; [14]

NCCOc1cc(C(=O)Nc2cc(OCCN)c3ccccc3n2)nc(C(=O)Nc2cc(OCCN)c3ccccc3n2)c1
yes: [1]; 20 uM ligand lowers biotinylation 67% to 1%

C=CC1=C(C)C2=Cc3c(C=C)c(C)c4[n]3[Fe]([Cl])[n]3c(c(C)c(CCC(=O)O)c3=CC3=NC(=C4)C(C)=C3CCC(=O)O)=CC1=N2
yes: [2] | [3] | [4] | [5] | [6] | [7] | [8] | [9] | [11] | [13]
weak: [10] | [12]

CCc1c(C)c2cc3nc(cc4nc(cc5c(CC)c(C)c(cc1[nH]2)n5C)C(C)=C4CCC(=O)O)C(CCC(=O)O)=C3C
yes: [1]; [14]
